In PubChem BioAssay (NCI):
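96-well plates; 48 h exposure; 5 concentrations. Endpoints by linear interpolation between flanking doses. Not reached: highest tested concentration assigned. The concentration for 50% growth inhibition is given as GI50. TGI marks complete inhibition of growth.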

Key:
Experiment in all cases: DTP human tumour cell line panel, 48 h
SF-539 CNS = tested on: SF-539 CNS
RXF 393 renal = tested on: RXF 393 renal
RPMI-8226 leukemia = tested on: RPMI-8226 leukemia
SK-MEL-28 melanoma = tested on: SK-MEL-28 melanoma
COLO 205 colon = tested on: COLO 205 colon
MOLT-4 leukemia = tested on: MOLT-4 leukemia
OVCAR-3 ovarian = tested on: OVCAR-3 ovarian
PC-3 prostate = tested on: PC-3 prostate
MDA-MB-435 = tested on: MDA-MB-435
NCI/ADR-RES ovarian = tested on: NCI/ADR-RES ovarian

NC1=NN(c2ccccc2)C(=O)C1C(=O)C(=O)Nc1nccs1 (stereo not drawn)
TGI (SF-539 CNS): > 100 µM
TGI (RXF 393 renal): > 100 µM
TGI (RPMI-8226 leukemia): > 100 µM
TGI (SK-MEL-28 melanoma): > 100 µM
TGI (COLO 205 colon): > 100 µM
TGI (MOLT-4 leukemia): > 100 µM
TGI (OVCAR-3 ovarian): > 100 µM

Nc1n[n+](-c2ccccc2)no1
TGI (SF-539 CNS): > 100 µM
TGI (RPMI-8226 leukemia): > 100 µM
TGI (COLO 205 colon): > 100 µM
TGI (MOLT-4 leukemia): > 100 µM
TGI (OVCAR-3 ovarian): > 100 µM

N#Cc1cc(S(=O)(=O)Nc2nnc(-c3ccccc3)c(-c3ccccc3)n2)c(SCc2ccccc2)cc1Cl
GI50 (PC-3 prostate): 20 µM
TGI (PC-3 prostate): 43.2 µM
GI50 (SF-539 CNS): 30.2 µM
TGI (SF-539 CNS): 62.4 µM
GI50 (MDA-MB-435): 21.2 µM
TGI (MDA-MB-435): 45.1 µM
GI50 (RXF 393 renal): 6.31 µM
TGI (RXF 393 renal): 22.7 µM
GI50 (RPMI-8226 leukemia): 16.4 µM
TGI (RPMI-8226 leukemia): 51.9 µM
GI50 (SK-MEL-28 melanoma): 35.2 µM
TGI (SK-MEL-28 melanoma): 91.3 µM
GI50 (COLO 205 colon): 40.8 µM
TGI (COLO 205 colon): > 100 µM
GI50 (MOLT-4 leukemia): 9.82 µM
TGI (MOLT-4 leukemia): > 100 µM
GI50 (OVCAR-3 ovarian): 15.3 µM
TGI (OVCAR-3 ovarian): 31.5 µM

CC1=C(O)/C(=C/C(C)CCC/C(C)=C/C=C/C(C)CCCc2ccoc2)OC1=O (stereo not drawn)
TGI (SF-539 CNS): > 100 µM
TGI (RXF 393 renal): > 100 µM
TGI (SK-MEL-28 melanoma): > 100 µM
TGI (COLO 205 colon): > 100 µM

CC(=O)[CH-]C(=O)c1ccccc1.CC(=O)[CH-]C(=O)c1ccccc1.Cc1cc([O-])ccc1Cl.Cc1cc([O-])ccc1Cl.[Ti+4]
GI50 (SF-539 CNS): 25.9 µM
TGI (SF-539 CNS): 72.9 µM
GI50 (RXF 393 renal): 26 µM
TGI (RXF 393 renal): 62.8 µM
GI50 (RPMI-8226 leukemia): 19.2 µM
TGI (RPMI-8226 leukemia): 55.3 µM
GI50 (SK-MEL-28 melanoma): 34.7 µM
TGI (SK-MEL-28 melanoma): > 100 µM
GI50 (COLO 205 colon): 19.6 µM
TGI (COLO 205 colon): 38.1 µM
GI50 (MOLT-4 leukemia): 15.5 µM
TGI (MOLT-4 leukemia): 54 µM
GI50 (OVCAR-3 ovarian): 18.9 µM
TGI (OVCAR-3 ovarian): 60.6 µM

O=NNc1ccc(Sc2ccc(NN=O)cn2)nc1
TGI (NCI/ADR-RES ovarian): > 100 µM
TGI (PC-3 prostate): > 100 µM
TGI (SF-539 CNS): > 100 µM
TGI (SK-MEL-28 melanoma): > 100 µM
TGI (COLO 205 colon): > 100 µM
TGI (MOLT-4 leukemia): > 100 µM
TGI (OVCAR-3 ovarian): > 100 µM

O=C(N/N=C1\C(=O)N(c2nccs2)C(=O)C(=O)C1c1nc2ccccc2s1)c1ccccc1O (stereo not drawn)
TGI (SF-539 CNS): > 100 µM
TGI (RXF 393 renal): > 100 µM
TGI (RPMI-8226 leukemia): > 100 µM
TGI (SK-MEL-28 melanoma): > 100 µM
TGI (COLO 205 colon): > 100 µM
TGI (OVCAR-3 ovarian): > 100 µM

CCc1cc(CCC(=O)Nc2ccccc2[N+](=O)[O-])[nH]c(=S)n1
TGI (SF-539 CNS): > 100 µM
TGI (RXF 393 renal): > 100 µM
TGI (SK-MEL-28 melanoma): > 100 µM
TGI (COLO 205 colon): > 100 µM
TGI (MOLT-4 leukemia): > 100 µM
TGI (OVCAR-3 ovarian): > 100 µM

C=C1CC2CC(O)CC(C1)C2 (stereo not drawn)
TGI (SF-539 CNS): > 100 µM
TGI (RXF 393 renal): > 100 µM
TGI (RPMI-8226 leukemia): > 100 µM
TGI (SK-MEL-28 melanoma): > 100 µM
TGI (COLO 205 colon): > 100 µM
TGI (MOLT-4 leukemia): > 100 µM
TGI (OVCAR-3 ovarian): > 100 µM

CCOC(=O)C(CC/C=C\c1ccccc1)N1CCC[C@H]1C(=O)OC (stereo partly drawn)
TGI (SF-539 CNS): > 100 µM
TGI (RXF 393 renal): > 100 µM
TGI (RPMI-8226 leukemia): > 100 µM
TGI (SK-MEL-28 melanoma): > 100 µM
TGI (COLO 205 colon): > 100 µM
TGI (MOLT-4 leukemia): > 100 µM
TGI (OVCAR-3 ovarian): > 100 µM

CC(=O)c1c(CO[N+](=O)[O-])n([O-])c2ccccc2[n+]1=O
TGI (NCI/ADR-RES ovarian): > 100 µM
TGI (PC-3 prostate): > 100 µM
TGI (SF-539 CNS): > 100 µM
TGI (MDA-MB-435): > 100 µM
TGI (RPMI-8226 leukemia): > 100 µM
TGI (SK-MEL-28 melanoma): > 100 µM
TGI (COLO 205 colon): > 100 µM
TGI (MOLT-4 leukemia): > 100 µM
TGI (OVCAR-3 ovarian): > 100 µM

COc1ccc2oc(C(=O)O)c3c2c1CCC3CCC(=O)O (stereo not drawn)
TGI (SF-539 CNS): > 100 µM
TGI (RXF 393 renal): > 100 µM
TGI (RPMI-8226 leukemia): > 100 µM
TGI (SK-MEL-28 melanoma): > 100 µM
TGI (COLO 205 colon): > 100 µM
TGI (MOLT-4 leukemia): > 100 µM
TGI (OVCAR-3 ovarian): > 1 µM

O=C(CCn1[nH]c(=O)c(Cl)c(Cl)c1=O)NNC(=O)C[n+]1ccccc1
TGI (SF-539 CNS): > 100 µM
TGI (RXF 393 renal): > 100 µM
TGI (RPMI-8226 leukemia): > 100 µM
TGI (SK-MEL-28 melanoma): > 100 µM
TGI (COLO 205 colon): > 100 µM
TGI (MOLT-4 leukemia): > 100 µM
TGI (OVCAR-3 ovarian): > 100 µM

O=C(NO)[C@@H](Cc1ccccc1)NS(=O)(=O)c1ccc(-c2ccccc2)cc1
GI50 (NCI/ADR-RES ovarian): > 25 µM
TGI (NCI/ADR-RES ovarian): > 25 µM
GI50 (PC-3 prostate): 7.97 µM
TGI (PC-3 prostate): > 25 µM
GI50 (SF-539 CNS): 9.56 µM
TGI (SF-539 CNS): > 25 µM
GI50 (MDA-MB-435): 13.4 µM
TGI (MDA-MB-435): > 25 µM
GI50 (SK-MEL-28 melanoma): > 25 µM
TGI (SK-MEL-28 melanoma): > 25 µM
GI50 (COLO 205 colon): > 25 µM
TGI (COLO 205 colon): > 25 µM
GI50 (MOLT-4 leukemia): 9.43 µM
TGI (MOLT-4 leukemia): > 25 µM
GI50 (OVCAR-3 ovarian): 13.6 µM
TGI (OVCAR-3 ovarian): > 25 µM

O=C(CC(=O)c1cccc2ccccc12)C(=O)NC1C2CC3CC(C2)CC1C3 (stereo not drawn)
TGI (SF-539 CNS): > 100 µM
TGI (RPMI-8226 leukemia): > 100 µM
TGI (COLO 205 colon): > 100 µM
TGI (MOLT-4 leukemia): > 100 µM
TGI (OVCAR-3 ovarian): > 100 µM

C/C=C(\CCOS(=O)(=O)c1ccc(C)cc1)[Si](C)(C)C
TGI (SF-539 CNS): > 100 µM
TGI (RXF 393 renal): > 100 µM
TGI (RPMI-8226 leukemia): > 100 µM
TGI (SK-MEL-28 melanoma): > 100 µM
TGI (COLO 205 colon): > 100 µM
TGI (MOLT-4 leukemia): > 100 µM
TGI (OVCAR-3 ovarian): > 100 µM

NS(=O)(=O)CC1CC[CH-]CC1.[Cl-].[Cl-].[Cl-].[Cl-].[Cl-].[Sb+5].c1ccncc1
GI50 (NCI/ADR-RES ovarian): > 100 µM
TGI (NCI/ADR-RES ovarian): > 100 µM
GI50 (PC-3 prostate): > 100 µM
TGI (PC-3 prostate): > 100 µM
GI50 (SF-539 CNS): > 100 µM
TGI (SF-539 CNS): > 100 µM
GI50 (MDA-MB-435): > 100 µM
TGI (MDA-MB-435): > 100 µM
GI50 (RXF 393 renal): > 100 µM
TGI (RXF 393 renal): > 100 µM
GI50 (RPMI-8226 leukemia): > 100 µM
TGI (RPMI-8226 leukemia): > 100 µM
GI50 (SK-MEL-28 melanoma): > 100 µM
TGI (SK-MEL-28 melanoma): > 100 µM
GI50 (COLO 205 colon): > 100 µM
TGI (COLO 205 colon): > 100 µM
GI50 (OVCAR-3 ovarian): > 100 µM
TGI (OVCAR-3 ovarian): > 100 µM

CO/N=C(\COc1ccc2oc(-c3ccccc3)cc(=O)c2c1)c1ccc(OC)cc1
GI50 (NCI/ADR-RES ovarian): 21.9 µM
TGI (NCI/ADR-RES ovarian): 51.4 µM
GI50 (PC-3 prostate): 29.9 µM
TGI (PC-3 prostate): 98.5 µM
GI50 (SF-539 CNS): 24.4 µM
TGI (SF-539 CNS): 64.7 µM
GI50 (MDA-MB-435): 15 µM
TGI (MDA-MB-435): 36.9 µM
GI50 (RXF 393 renal): 29 µM
TGI (RXF 393 renal): 97.5 µM
GI50 (RPMI-8226 leukemia): 27.9 µM
TGI (RPMI-8226 leukemia): 81.9 µM
GI50 (SK-MEL-28 melanoma): 30.7 µM
TGI (SK-MEL-28 melanoma): > 100 µM
GI50 (COLO 205 colon): 30.8 µM
TGI (COLO 205 colon): > 100 µM
GI50 (OVCAR-3 ovarian): 22.7 µM
TGI (OVCAR-3 ovarian): 71 µM

N#CC1(C#N)C2C=CC(c3coc4cccc2c34)C1(C#N)C#N (stereo not drawn)
TGI (SF-539 CNS): 35.2 µM
TGI (RXF 393 renal): 9.66 µM
TGI (RPMI-8226 leukemia): 19.9 µM
TGI (SK-MEL-28 melanoma): 10.8 µM
TGI (COLO 205 colon): 4.4 µM
TGI (MOLT-4 leukemia): 6.35 µM
TGI (OVCAR-3 ovarian): 29.9 µM

Cc1cccc2c1CCC21OC(=O)c2c1ccc1ccccc21 (stereo not drawn)
TGI (RXF 393 renal): > 100 µM
TGI (SK-MEL-28 melanoma): > 100 µM
TGI (COLO 205 colon): > 100 µM
TGI (MOLT-4 leukemia): 79.8 µM
TGI (OVCAR-3 ovarian): > 100 µM

Cc1ccc(NC(=O)CSc2nnc3n(Cc4ccccc4)c(=O)c4c(C)c(C(N)=O)sc4n23)cc1
GI50 (NCI/ADR-RES ovarian): > 100 µM
TGI (NCI/ADR-RES ovarian): > 100 µM
GI50 (PC-3 prostate): > 100 µM
TGI (PC-3 prostate): > 100 µM
GI50 (SF-539 CNS): 21.7 µM
TGI (SF-539 CNS): > 100 µM
GI50 (MDA-MB-435): > 100 µM
TGI (MDA-MB-435): > 100 µM
GI50 (RXF 393 renal): 6.88 µM
TGI (RXF 393 renal): 39 µM
GI50 (RPMI-8226 leukemia): > 100 µM
TGI (RPMI-8226 leukemia): > 100 µM
GI50 (COLO 205 colon): 78 µM
TGI (COLO 205 colon): > 100 µM
GI50 (MOLT-4 leukemia): 27.3 µM
TGI (MOLT-4 leukemia): 81.5 µM
GI50 (OVCAR-3 ovarian): > 100 µM
TGI (OVCAR-3 ovarian): > 100 µM
